Values quoted from earlier work as cited in PubChem BioAssay AID1259409 (Chemical Carcinogenesis Research Information System (CCRIS), 2018).

Test system: rodent chemically induced tumor inhibition, incidence and multiplicity
Experiment: CCRIS tumor inhibitor studies
Details: Species: RAT, Strain/Sex: F344/MALE

O=P(O)(O)OC1C(OP(=O)(O)O)C(OP(=O)(O)O)C(OP(=O)(O)O)C(OP(=O)(O)O)C1OP(=O)(O)O (stereo not given)
tumour outcome (control, treated, inhibition, significance) (Carcinogen: 2,2'-DIHYDROXY-DI-N-PROPYLNITROSAMINE [621-64-7], N-ETHYL-N-HYDROXYETHYLNITROSAMINE [13147-25-6], 3,2'-DIMETHYL-4-AMINOB, Carcinogen: 2,2'-DIHYDROXY-DI-N-PROPYLNITROSAMINE [621-64-7], N-ETHYL-N-HYDROXYETHYLNITROSAMINE [13147-25-6], 3,2'-DIMETHYL-4-AMINOB, Dose [Inhibitor]: 2% IN DIET FOR 32 WK BEGINNING 1 WK POST LAST CARCINOGEN DOSE (STUDY DURATION: 32 WK), Route [Inhibitor]: ORAL, Target Tissue: Type of Lesion: LIVER: ADENOMA, Dose [Carcinogen]: 1000 MG/KG BW DHPN IP 2X/3 WK, 1500 MG/KG BW EHEN IP 2X/3 WK, 75 MG/KG BW DMAB SC 3X/3 WK;, Dose [Carcinogen]: 1000 MG/KG BW DHPN IP 2X/3 WK, 1500 MG/KG BW EHEN IP 2X/3 WK, 75 MG/KG BW DMAB SC 3X/3 WK;, Promoter: NONE): 9/14 (64%), 5/12 (42%), 34%, p<0.01
tumour outcome (control, treated, inhibition, significance) (Carcinogen: 2,2'-DIHYDROXY-DI-N-PROPYLNITROSAMINE [621-64-7], N-ETHYL-N-HYDROXYETHYLNITROSAMINE [13147-25-6], 3,2'-DIMETHYL-4-AMINOB, Carcinogen: 2,2'-DIHYDROXY-DI-N-PROPYLNITROSAMINE [621-64-7], N-ETHYL-N-HYDROXYETHYLNITROSAMINE [13147-25-6], 3,2'-DIMETHYL-4-AMINOB, Dose [Inhibitor]: 2% IN DIET FOR 32 WK BEGINNING 1 WK POST LAST CARCINOGEN DOSE (STUDY DURATION: 32 WK), Route [Inhibitor]: ORAL, Target Tissue: Type of Lesion: LIVER: CARCINOMA, Dose [Carcinogen]: 1000 MG/KG BW DHPN IP 2X/3 WK, 1500 MG/KG BW EHEN IP 2X/3 WK, 75 MG/KG BW DMAB SC 3X/3 WK;, Dose [Carcinogen]: 1000 MG/KG BW DHPN IP 2X/3 WK, 1500 MG/KG BW EHEN IP 2X/3 WK, 75 MG/KG BW DMAB SC 3X/3 WK;, Promoter: NONE): 6/14 (43%), 1/12 (8%), 81%, not significant
tumour outcome (control, treated, inhibition, significance) (Carcinogen: 2,2'-DIHYDROXY-DI-N-PROPYLNITROSAMINE [621-64-7], N-ETHYL-N-HYDROXYETHYLNITROSAMINE [13147-25-6], 3,2'-DIMETHYL-4-AMINOB, Carcinogen: 2,2'-DIHYDROXY-DI-N-PROPYLNITROSAMINE [621-64-7], N-ETHYL-N-HYDROXYETHYLNITROSAMINE [13147-25-6], 3,2'-DIMETHYL-4-AMINOB, Dose [Inhibitor]: 2% IN DIET FOR 32 WK BEGINNING 1 WK POST LAST CARCINOGEN DOSE (STUDY DURATION: 32 WK), Route [Inhibitor]: ORAL, Target Tissue: Type of Lesion: LUNG: ADENOMA, Dose [Carcinogen]: 1000 MG/KG BW DHPN IP 2X/3 WK, 1500 MG/KG BW EHEN IP 2X/3 WK, 75 MG/KG BW DMAB SC 3X/3 WK;, Dose [Carcinogen]: 1000 MG/KG BW DHPN IP 2X/3 WK, 1500 MG/KG BW EHEN IP 2X/3 WK, 75 MG/KG BW DMAB SC 3X/3 WK;, Promoter: NONE): 7/14 (50%), 9/12 (75%), -50%, not significant
tumour outcome (control, treated, inhibition, significance) (Carcinogen: 2,2'-DIHYDROXY-DI-N-PROPYLNITROSAMINE [621-64-7], N-ETHYL-N-HYDROXYETHYLNITROSAMINE [13147-25-6], 3,2'-DIMETHYL-4-AMINOB, Carcinogen: 2,2'-DIHYDROXY-DI-N-PROPYLNITROSAMINE [621-64-7], N-ETHYL-N-HYDROXYETHYLNITROSAMINE [13147-25-6], 3,2'-DIMETHYL-4-AMINOB, Dose [Inhibitor]: 2% IN DIET FOR 32 WK BEGINNING 1 WK POST LAST CARCINOGEN DOSE (STUDY DURATION: 32 WK), Route [Inhibitor]: ORAL, Target Tissue: Type of Lesion: URINARY BLADDER: CARCINOMA, Dose [Carcinogen]: 1000 MG/KG BW DHPN IP 2X/3 WK, 1500 MG/KG BW EHEN IP 2X/3 WK, 75 MG/KG BW DMAB SC 3X/3 WK;, Dose [Carcinogen]: 1000 MG/KG BW DHPN IP 2X/3 WK, 1500 MG/KG BW EHEN IP 2X/3 WK, 75 MG/KG BW DMAB SC 3X/3 WK;, Promoter: NONE): 1/14 (7%), 4/12 (33%), -371%, not significant
outcome (Carcinogen: 2,2'-DIHYDROXY-DI-N-PROPYLNITROSAMINE [621-64-7], N-ETHYL-N-HYDROXYETHYLNITROSAMINE [13147-25-6], 3,2'-DIMETHYL-4-AMINOB, Carcinogen: 2,2'-DIHYDROXY-DI-N-PROPYLNITROSAMINE [621-64-7], N-ETHYL-N-HYDROXYETHYLNITROSAMINE [13147-25-6], 3,2'-DIMETHYL-4-AMINOB, Dose [Inhibitor]: 2% IN DIET FOR 32 WK BEGINNING 1 WK POST LAST CARCINOGEN DOSE (STUDY DURATION: 32 WK), Route [Inhibitor]: ORAL, Target Tissue: Type of Lesion: URINARY BLADDER: PAPILLOMA, Dose [Carcinogen]: 1000 MG/KG BW DHPN IP 2X/3 WK, 1500 MG/KG BW EHEN IP 2X/3 WK, 75 MG/KG BW DMAB SC 3X/3 WK;, Dose [Carcinogen]: 1000 MG/KG BW DHPN IP 2X/3 WK, 1500 MG/KG BW EHEN IP 2X/3 WK, 75 MG/KG BW DMAB SC 3X/3 WK;, Promoter: NONE): 0/14 (0%), 6/12 (50%), -100%, p<0.01
tumour outcome (control, treated, inhibition, significance) (Carcinogen: 2,2'-DIHYDROXY-DI-N-PROPYLNITROSAMINE, 53609-64-6, N-ETHYL-N-HYDROXYETHYL- NITROSAMINE, 13147-25-6, 3,2'-DIMETHYL-4-, Carcinogen: 2,2'-DIHYDROXY-DI-N-PROPYLNITROSAMINE, 53609-64-6, N-ETHYL-N-HYDROXYETHYL- NITROSAMINE, 13147-25-6, 3,2'-DIMETHYL-4-, Dose [Inhibitor]: 0, 2% IN DIET BEGINNING 1 WK POST LAST CARCINOGEN DOSE AND CONTINUING FOR 32 WK (STUDY DURATION: 36 WK), Route [Inhibitor]: 0RAL, Target Tissue: Type of Lesion: URINARY BLADDER: CARCINOMA, Dose [Carcinogen]: 1000 MG/KG IP DHPN 2X, 1500 MG/KG GAV EHEN 2X AND 75 MG/KG SC DMAB 3X GIVEN OVER THE INITIAL 3 WK PERIOD AT 3-4 D INTERV, Promoter: NONE USED): 1/14 (7%), 2/12 (17%), -143%, not calculated
tumour outcome (control, treated, inhibition, significance) (Carcinogen: 2,2'-DIHYDROXY-DI-N-PROPYLNITROSAMINE, 53609-64-6, N-ETHYL-N-HYDROXYETHYL- NITROSAMINE, 13147-25-6, 3,2'-DIMETHYL-4-, Carcinogen: 2,2'-DIHYDROXY-DI-N-PROPYLNITROSAMINE, 53609-64-6, N-ETHYL-N-HYDROXYETHYL- NITROSAMINE, 13147-25-6, 3,2'-DIMETHYL-4-, Dose [Inhibitor]: 0, 2% IN DIET BEGINNING 1 WK POST LAST CARCINOGEN DOSE AND CONTINUING FOR 32 WK (STUDY DURATION: 36 WK), Route [Inhibitor]: ORAL, Target Tissue: Type of Lesion: LARGE INTESTINE: ADENOMA, Dose [Carcinogen]: 1000 MG/KG/ IP DHPN 2X, 1500 MG/KG GAV EHEN 2X AND 75 MG/KG SC DMAB 3X GIVEN OVER THE INITIAL 3 WK AT 3-4 D INTERVALS, Promoter: NONE USED): 7/14 (50%), 5/12 (42%), 16%, not calculated
tumour outcome (control, treated, inhibition, significance) (Carcinogen: 2,2'-DIHYDROXY-DI-N-PROPYLNITROSAMINE, 53609-64-6, N-ETHYL-N-HYDROXYETHYL- NITROSAMINE, 13147-25-6, 3,2'-DIMETHYL-4-, Carcinogen: 2,2'-DIHYDROXY-DI-N-PROPYLNITROSAMINE, 53609-64-6, N-ETHYL-N-HYDROXYETHYL- NITROSAMINE, 13147-25-6, 3,2'-DIMETHYL-4-, Dose [Inhibitor]: 0, 2% IN DIET BEGINNING 1 WK POST LAST CARCINOGEN DOSE AND CONTINUING FOR 32 WK (STUDY DURATION: 36 WK), Route [Inhibitor]: ORAL, Target Tissue: Type of Lesion: LARGE INTESTINE: CARCINOMA, Dose [Carcinogen]: 1000 MG/KG IP DHPN 2X, 1500 MG/KG GAV EHEN 2X AND 75 MG/KG SC DMAB 3X GIVEN OVER THE INITIAL 3 WK PERIOD AT 3-4 D INTERV, Promoter: NONE USED): 3/14 (21%), 4/12 (33%), -57%, not calculated
tumour outcome (control, treated, inhibition, significance) (Carcinogen: 2,2'-DIHYDROXY-DI-N-PROPYLNITROSAMINE, 53609-64-6, N-ETHYL-N-HYDROXYETHYL- NITROSAMINE, 13147-25-6, 3,2'-DIMETHYL-4-, Carcinogen: 2,2'-DIHYDROXY-DI-N-PROPYLNITROSAMINE, 53609-64-6, N-ETHYL-N-HYDROXYETHYL- NITROSAMINE, 13147-25-6, 3,2'-DIMETHYL-4-, Dose [Inhibitor]: 0, 2% IN DIET BEGINNING 1 WK POST LAST CARCINOGEN DOSE AND CONTINUING FOR 32 WK (STUDY DURATION: 36 WK), Route [Inhibitor]: ORAL, Target Tissue: Type of Lesion: LIVER: HEPATOCELLULAR CARCINOMA, Dose [Carcinogen]: 1000 MG/KG IP DHPN 2X, 1500 MG/KG GAV EHEN 2X AND 75 MG/KG SC DMAB 3X GIVEN OVER THE INITIAL 3 WK AT 3-4 D INTERVALS, Promoter: NONE USED): 6/14 (43%), 1/12 (8%), 81%, not calculated
tumour outcome (control, treated, inhibition, significance) (Carcinogen: 2,2'-DIHYDROXY-DI-N-PROPYLNITROSAMINE, 53609-64-6, N-ETHYL-N-HYDROXYETHYL- NITROSAMINE, 13147-25-6, 3,2'-DIMETHYL-4-, Carcinogen: 2,2'-DIHYDROXY-DI-N-PROPYLNITROSAMINE, 53609-64-6, N-ETHYL-N-HYDROXYETHYL- NITROSAMINE, 13147-25-6, 3,2'-DIMETHYL-4-, Dose [Inhibitor]: 0, 2% IN DIET BEGINNING 1 WK POST LAST CARCINOGEN DOSE AND CONTINUING FOR 32 WK (STUDY DURATION: 36 WK), Route [Inhibitor]: ORAL, Target Tissue: Type of Lesion: LUNG: ADENOMA, Dose [Carcinogen]: 1000 MG/KG IP DHPN 2X, 1500 MG/KG GAV EHEN 2X AND 75 MG/KG SC DMAB 3X GIVEN OVER THE INITIAL 3 WK PERIOD AT 3-4 D INTERV, Promoter: NONE USED): 7/14 (50%), 9/12 (75%), -50%, not calculated
